Measured values taken from article PMC2964380 (Bioorganic & medicinal chemistry, 2010).
pEC50: −log10 of the molar value. Where two headings read alike, the source gives them in different places.

What was measured:
[1] = system: HIV-1 (IIIB); assay: Inhibition of HIV-1; type: cell-based; settings: Human immunodeficiency virus 1, IIIB, MT2, 120 h, read-out: Cell-Culture EC50
[2] = system: HIV-1 (IIIB); settings: MT-2 cell culture, MTT assay; cited from earlier work

SMILES | pEC50 [1] | pEC50 [2]
COc1ccc(OC)c(CCNC(=S)Nc2ccc(Br)cn2)c1 [HI-236] | 7.38 | –
Cc1cn([C@H]2C=C[C@@H](CO)O2)c(=O)[nH]c1=O [d4T] | – | 5.70
